Like-named read-outs stand apart in the source and are kept apart here.
Columns and labels:
[1] = tested on: myeloid derived suppressor cells in PBMCs of breast cancer patients; test: ENCORE 301 blood samples: flow cytometry of circulating MDSC subsets and CD40 on MDSCs, baseline vs C1D15; type: in vivo, human
Excerpt: (A) Gating strategy for analysis of MDSC phenotypes in PBMCs of breast cancer patients. Initial gating was on single viable CD45^+ cells. Lineage (CD3, CD19, CD56)^−HLA-DR^−CD11b^+CD33^+ cells were defined as Lin^−MDSCs. The Lin^−MDSCs were further divided into monocytic MDSCs (Lin^−HLA-DR^−CD11b^+CD33^+CD14^+ cells) and immature MDSCs (Lin^−HLA-DR^−CD11b^+CD33^+CD14^− cells). CD14^−CD11b^+CD33^+ cells were defined as granulocytic MDSCs. […]
(§1) Blood samples were obtained on cycle 1 day 1 (C1D1; pre-treatment), C1D2, C1D8, and C1D15 for biomarker analyses. […] Cell populations were based on the following surface markers, in which “X−” means negative for marker X, “X+” means positive for marker X, “Xlow/−” means low levels to absence of marker X, and “Xhi” means high levels of expression of marker X:
Myeloid derived suppressor cell: CD3−, CD19−, CD56−, HLA-DR−, CD11b+, CD33+.
PMN-MDSC: CD14−, CD11b+, CD33+.
M-MDSC: CD3−, CD19−, CD56−, HLA-DR−, CD11b+, CD33+, CD14+.
Immature MDSC: CD3−, CD19−, CD56−, HLA-DR−, CD11b+, CD33+, CD14−.
(§2) Monocytes were analyzed for three populations: (1) CD14+; (2) CD14+, HLA-DRhi; and (3) CD14+, HLA-DRlow/−. PD-1, CTLA-4, and TIM-3 were measured on CD8+ T-cells, CD4+ T-cells, and Tregs, and CD40 was measured on myeloid derived suppressor cells.
(§3) The percent change in subsets at C1D15 vs. baseline was assessed based on the following surface markers: Lin-MDSC (lin;CD3,CD19,CD56)-HLA-DR-CD11b+CD33+), granulocytic MDSC (CD14−CD11b+CD33+), monocytic MDSC (Lin−HLA-DR−CD11b+CD33+CD14+), immature MDSC (Lin−HLA-DR−CD11b+CD33+CD14−), CD8+T-cells (CD4−CD8+), Foxp3−CD4+T-cells (CD8−CD4+Foxp3−), and Tregs (CD4+CD8−CD25hiFoxp3+). Monocytes were analyzed for three populations: CD14+, CD14+HLA-DRhi, and CD14+HLA-DR-low/negative. In addition, PD-1, CTLA-4, and TIM-3 were measured on T-cell subsets, and CD40 was measured on MDSCs.

[2] = tested on: CD14+ monocytes in PBMCs of breast cancer patients; test: ENCORE 301 blood samples: flow cytometry of circulating monocyte populations, baseline vs C1D15; type: in vivo, human
Excerpt: (A) Gating strategy for analysis of CD14^+ monocytes (left panel), CD14^+HLA-DR^hi monocytes (red box, right upper panel), and CD14^+HLA-DR^low/neg monocytes (blue box, right lower panel) in PBMCs of breast cancer patients. Initially gated on single viable CD45^+ cells. […] (D) HLA-DR expression on CD14^+ monocytes in vitro. […] Median fluorescence intensity, MFI.
as §1, §2, §3

[3] = tested on: advanced hormone receptor positive breast cancer; test: ENCORE 301 randomized, placebo-controlled phase II trial: clinical outcome (PFS, OS); type: in vivo, human; conditions: the 34 patients analysed for immune subsets
Excerpt: Blood was collected from a subset of 49 patients (27 EE and 22 EP) representative of the 130 patients enrolled in ENCORE 301 on cycle 1 day 1 (C1D1; pretreatment), C1D2, C1D8, and C1D15 for biomarker analyses. Of these 49, C1D1 and C1D15 samples were available from 34 patients (20 EE and 14 EP) for further analysis of circulating immune subsets.

[4] = in vivo; cited from earlier work
[5] = tested on: T-cell subsets in PBMCs of breast cancer patients; test: ENCORE 301 blood samples: T-cell subsets and immune checkpoint receptor expression; type: in vivo, human; conditions: ENCORE 301 patients, C1D15 vs baseline
Method: FIG. 5 illustrates gating strategy for analysis of T-cell subsets in PBMCs of breast cancer patients. (A) Initial gating was on single viable cells. The CD4^+ T-cells were further divided into Tregs (CD8^−CD4^+CD25^hiFoxp3^+ cells) and Foxp3^−CD4^+ T-cells (CD8^−CD4^+Foxp3^− cells). (B) Immune checkpoint receptor expression was evaluated for CD8^+ T-cells, Foxp3^−CD4^+ T-cells, and Tregs. Representative histograms for PD-1 (left), CTLA-4 (middle), and TIM-3 (right) were shown.
CD8+ T-cell: CD4−, CD8+, Foxp3−.
CD4+ T-cell: CD8−, CD4+, Foxp3−.
Tregs: CD4+, CD8−, CD25hi, Foxp3+.
as §2, §3

[6] = tested on: monocytic MDSCs, granulocytic MDSCs and Lineage cells from healthy donor PBMCs; test: In vitro dead cell dye staining of PBMCs cultured with IL-6 and GM-CSF, then DMSO or entinostat; type: cell-based, human; conditions: entinostat 0.5 μM vs DMSO, two or three days, n=7
Method: (C) Absolute viable cell counts of MDSCs (upper panel, monocytic MDSCs; lower panel, granulocytic MDSCs). Fresh PBMCs (2×10^6 PBMCs/well) were cultured with IL-6 (10 ng/ml) and GM-CSF (10 ng/ml). […] (D) Percentage of dead cell dye-positive cells in the monocytic MDSCs (red line), granulocytic MDSCs (blue line), and Lineage cells (black line). […] Percentage of dead cell dye-positive cells among each population (monocytic MDSCs, granulocytic MDSCs, and lineage cells) was calculated. Mean±SD is shown (n=7).

[7] = tested on: squamous or non-squamous NSCLC; conditions: cited from earlier work
melanoma = conditions: cited from earlier work
[8] = tested on: advanced refractory malignancies; conditions: cited from earlier work
[9] = C1D1 vs C1D15, statistic not stated
[10] = breast cancer patients, EP n = 14, EE n = 20, mean
[11] = breast cancer patients, EP n = 14, EE n = 20, median

C=C1C[C@@H]2[C@H](CC[C@]3(C)C(=O)CC[C@@H]23)[C@@]2(C)C=CC(=O)C=C12 [EP]
change of M-MDSCs (monocytic MDSC) [1, 9]: +1.97% | change of PMN-MDSCs (granulocytic MDSC) [1, 9]: +20.56% | change of immature MDSCs [1, 9]: −15.0% | CD40 on Lin-MDSCs change from baseline to C1D15, Mean (SD) [1, 10]: 14.85 (34.92) % | CD40 on g-MDSCs change from baseline to C1D15, Mean (SD) [1, 10]: 16.52 (32.07) % | CD40 on immature MDSCs change from baseline to C1D15, Mean (SD) [1, 10]: 18.64 (35.15) % | CD40 on m-MDSCs change from baseline to C1D15, Mean (SD) [1, 10]: 3.37 (25.69) % | Lin-MDSCs change from baseline to C1D15, Mean (SD) [1, 10]: 1.28 (83.31) % | g-MDSCs change from baseline to C1D15, Mean (SD) [1, 10]: 20.56 (68.45) % | immature MDSCs change from baseline to C1D15, Mean (SD) [1, 10]: 4.92 (94.50) % | m-MDSCs change from baseline to C1D15, Mean (SD) [1, 10]: 28.24 (86.60) % | CD40 on Lin-MDSCs change from baseline to C1D15, Median (Min, Max) [1, 11]: 3.37 % | CD40 on g-MDSCs change from baseline to C1D15, Median (Min, Max) [1, 11]: 10.52 % | CD40 on immature MDSCs change from baseline to C1D15, Median (Min, Max) [1, 11]: 9.00 % | CD40 on m-MDSCs change from baseline to C1D15, Median (Min, Max) [1, 11]: 1.57 % | Lin-MDSCs change from baseline to C1D15, Median (Min, Max) [1, 11]: −22.11 % | g-MDSCs change from baseline to C1D15, Median (Min, Max) [1, 11]: 3.82 % | immature MDSCs change from baseline to C1D15, Median (Min, Max) [1, 11]: −20.94 % | m-MDSCs change from baseline to C1D15, Median (Min, Max) [1, 11]: 1.97 % | HLA-DR levels (expression) on monocytes, change [2, 9]: −4.7% | change of (number of) HLA-DR+ monocytes [2, 9]: −11.38% | CD14+ change from baseline to C1D15, Mean (SD) [2, 10]: −0.58 (22.73) % | CD14+HLA-DR HI change from baseline to C1D15, Mean (SD) [2, 10]: −8.63 (17.77) % | CD14+HLA-DR LO/NEG change from baseline to C1D15, Mean (SD) [2, 10]: 13.45 (43.11) % | HLA-DR expression on CD14+ change from baseline to C1D15, Mean (SD) [2, 10]: −6.23 (18.77) % | CD14+ change from baseline to C1D15, Median (Min, Max) [2, 11]: 1.90 % | CD14+HLA-DR HI change from baseline to C1D15, Median (Min, Max) [2, 11]: −11.38 % | CD14+HLA-DR LO/NEG change from baseline to C1D15, Median (Min, Max) [2, 11]: 1.55 % | HLA-DR expression on CD14+ change from baseline to C1D15, Median (Min, Max) [2, 11]: −4.74 % | Overall Survival (OS) [3]: 20.3 months | Progression Free Survival (PFS) [3]: 1.8 months

Nc1ccccc1NC(=O)c1ccc(CNC(=O)OCc2cccnc2)cc1 [Entinostat, N-(2-aminophenyl)-4-[N-(pyridine-3-yl)methoxycarbonylamino-methyl]-benzamide]
half-life [4]: about 100 hours | alteration of expression of CTLA-4, PD-1, or TIM-3 on T-cell subsets [5]: did not significantly | percentage of dead (dead cell dye-positive) granulocytic MDSCs ([6]; P=0.016): increased | percentage of dead (dead cell dye-positive) monocytic MDSCs ([6]; P=0.016): increased | percentage of dead (dead cell dye-positive) lineage cells (CD3+, CD19+, or CD56+) ([6]; P=0.7): not increased

MPDL3280A: human anti-PD-L1 mAb with engineered Fc domain
24-week PFS rate ([7]; non-squamous cell NSCLC): 46% | 24-week PFS rate ([7]; squamous cell NSCLC): 44%

Pembrolizumab: humanized monoclonal IgG4 anti-PD-1 antibody
overall objective response rate (ORR) (melanoma; immune-related response criteria, 44 of 117): 38% | patients with some AEs (melanoma; in vivo): 79% | rate of severe toxicities, less dose intense cohorts (melanoma; in vivo): < 10% | median progression free survival (melanoma; melanoma): exceeded 7 months | patients with some degree of tumor regression (melanoma; melanoma): 77% | maximum tolerated dose ([8]; 1, 3 and 10 mg/kg intravenously): not reached | patients with some tumor regression ([8]; dose-escalation study): Four | half-life ([8]; in vivo): 13.6 to 21.7 days

Source: US11397184B2, “Selection of patients for combination therapy” (Syndax Pharmaceuticals, Inc., priority 2015, dated 2022)
